Measurements as given in article PMC6895180 (Nature Communications, 2019).
Where “and” joins values, the source holds several entries; their conditions need not be identical. Equal values may be shown once. Read-outs that look alike come from different tables or passages of the source.

Assays:
[1] = Metabolic stability, mouse liver microsomes (phase I and II)
Experimental: Mouse, rat, and pooled human liver microsomes were purchased from a commercial source (Corning) and stored at -80 °C. NADPH generating system solutions A and B and UGT reaction mix solutions A and B (Corning) were kept at -20°C. The test compound and the reference compounds diclofenac (MW […]
microsomal stability assay was carried out based on the BD Biosciences Guidelines for Use (TF000017 Rev1.0) with minor adaptations. Metabolic stability of the compounds was studied through the CYP450 superfamily (phase I metabolism) by fortification with reduced nicotinamide adenine dinucleotide phosphate (NADPH) and through uridine glucuronosyl-transferase (UGT) enzymes (phase II metabolism) by fortification with uridine diphosphate glucuronic acid (UDPGA). For the CYP450 and other NADPH dependent enzymes, both compounds were incubated at 5 µM together with 0.5 mg mL-1 liver microsomes in potassium phosphate buffer in a reaction started by the addition of 1 mM NADPH […]
At these time points, 20 µL was withdrawn from the reaction mixture and 80 µL cold acetonitrile (ACN) containing the internal standard tolbutamide, was added to inactivate the enzymes and precipitate the proteins. The mixture was vortexed for 30 s and centrifuged at 4 °C for 5 min at 15,000 rpm. The supernatant was stored at -80°C until analysis. For the UGT enzymes, both compounds were incubated at 5 µM together with 0.5 mg mL-1 liver microsomes in a reaction started by the addition of 2 mM UDPGA cofactor. The corresponding loss of parent compound was determined using liquid chromatography (UPLC) (Waters AquityTM) coupled with tandem quadrupole mass spectrometry (MS²) (Waters XevoTM), equipped with an electrospray ionization (ESI) interface and operated in multiple reaction monitoring (MRM) mode. […]

T. brucei ADKIN = target: T1, T. brucei ADKIN (Trypanosoma brucei brucei, UniProt Q584S6); assay: ADKIN assay (phosphorylation by purified recombinant enzyme, HPLC); format: biochemical; parameters: Conc.9-MP: unit not given here; conditions: for Conc.9-MP: TbAK assay; for Act (U/mg): TbAK
T1 sequence (Q584S6 1-345): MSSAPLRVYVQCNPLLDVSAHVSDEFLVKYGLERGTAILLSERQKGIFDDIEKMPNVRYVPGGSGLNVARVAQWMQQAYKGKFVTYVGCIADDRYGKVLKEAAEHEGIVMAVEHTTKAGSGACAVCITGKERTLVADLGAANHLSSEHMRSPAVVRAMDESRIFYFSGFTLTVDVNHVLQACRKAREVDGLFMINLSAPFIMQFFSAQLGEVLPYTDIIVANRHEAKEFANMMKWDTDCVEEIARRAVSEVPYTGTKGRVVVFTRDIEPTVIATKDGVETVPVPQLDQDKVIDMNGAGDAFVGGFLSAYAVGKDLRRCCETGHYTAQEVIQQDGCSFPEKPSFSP
Experimental: The T. brucei ADKIN enzyme was diluted in a buffer containing 0.05% (v/v) Tween-20, 50 mM KCl, 0.1 mM dithiothreitol, and 50 mM Tris-HCl, pH 7.5 (dilution buffer), prior to use in the assay. The final assay mixture contained 12.5 ng T. brucei ADKIN, a range between 50 and 1000 µM of nucleoside 9 (or 1000 µM deoxyadenosine in the control reaction), 100 mM KCl, 10 mM MgCl2, 0.5 mM ATP, 5 mM potassium phosphate and 50 mM Tris-HCl, pH 7.5. The assay was incubated at 37 °C for 30 min, and subsequently heated for 2 min at 100 °C to inactivate the enzyme, diluted with 2 volumes of water, centrifuged through a Nanosep 3k Omega filter and mixed 1:1:2 with water and mobile phase. The HPLC analysis was performed on a 2.1 × 150 mm ACE Excel C18 column using a mobile phase composition 4A:76B:20C (see nucleotide pool analysis, Supplementary Information for details). Using these conditions, consecutive samples could be loaded (Supplementary Fig. 12). After 4–5 samples, the column was washed with high percent A (80A:20C) to remove bound ADP and ATP before re-equilibrating the column to original conditions.

[2] = tested on: RNAi clones targeting adenosine kinase (ADKIN; Tb927.6.2300) in T. brucei NY-SM cells; assay: Susceptibility of ADKIN RNAi clones (tetracycline-induced / non-induced); format: cell-based, Trypanosoma brucei brucei; conditions: for IC50: single determinations
Experimental: Susceptibility assays with NY-SM[51], BS221[48] and TbAT1-KO[48] (derived from BS221) cells were performed using 10 concentrations of a 4-fold compound dilution series starting at 64 µM. Parasites were seeded at 4 × 10^3 parasites per well and exposed to drug compound for 72 h, after which resazurin (final concentration of 10 µg mL^−1) was added to the plates. Fluorescence intensities were determined after 6 h.
The RNAi library[54] was induced for 68 h by the addition of 1 µg mL^−1 of tetracycline. After induction, the cells were exposed to different concentrations of 9 (corresponding to the IC98, IC99). Cells were maintained until a recovery of the resistant population was observed. Genomic DNA of the resistant parasite population was isolated, and the RNAi inserts were identified by PCR amplification, followed by cloning in highly competent Escherichia coli and sequencing. To validate the involvement of the identified genes, the RNAi inserts were back-cloned into a p2T7Bern vector[54] and transformed into NY-SM cells (the background strain of the RNAi library). The transformed NY-SM cells were cloned by limiting dilution. Two clones of each RNAi insert were exposed to tetracycline to induce the RNAi phenotype and subsequently subjected to different concentrations of 9 to determine the susceptibility of induced versus non-induced clones.
Drug susceptibility assays with induced clones were performed as described above for NY-SM cells, with an initial induction period of 68 h with 1 µg mL^−1 tetracycline prior to the start of the drug susceptibility assay.

Nc1ncnc2c1ccn2[C@@H]1O[C@H](CO)C[C@H]1O [Compound 9, 3’-deoxytubercidin]
% analogue 9 remaining, EXP 1 / EXP 2 ([1]; microsomes, 0 min, 5 µM): 100%
% analogue 9 remaining, Mean ([1]; microsomes, 0 min, 5 µM): 100%
metabolic stability ([1]; s9, 0.5 h): metabolically stable
Conc.9-MP (T. brucei ADKIN; substrate 50 µM, 3 series): 11.2244 and 8.987 and 9.705
Conc.9-MP (T. brucei ADKIN; substrate 100 µM): 19.1548 and 15.376 and 17.4986
Conc.9-MP (T. brucei ADKIN; substrate 250 µM): 33.0019 and 26.0907 and 28.4308
Conc.9-MP (T. brucei ADKIN; substrate 500 µM): 42.1131 and 37.0292 and 37.487
Conc.9-MP (T. brucei ADKIN; substrate 1000 µM): 45.1958 and 43.7663 and 38.425
Act (U/mg) (T. brucei ADKIN; substrate 50 µM, U = µmol/min): 1.497 U/mg and 1.198 U/mg and 1.294 U/mg
Act (U/mg) (T. brucei ADKIN; substrate 100 µM): 2.554 U/mg and 2.05 U/mg and 2.333 U/mg
Act (U/mg) (T. brucei ADKIN; substrate 250 µM): 4.4 U/mg and 3.479 U/mg and 3.791 U/mg
Act (U/mg) (T. brucei ADKIN; substrate 500 µM): 5.615 U/mg and 4.937 U/mg and 4.998 U/mg
Act (U/mg) (T. brucei ADKIN; substrate 1000 µM): 6.0261 U/mg and 5.836 U/mg and 5.123 U/mg
Vmax mg^−1 with TbADKIN (T. brucei ADKIN; mean and SE, n = 3): 0.116 ± 0.0048 U (µmol s^−1)
Vmax/mg with TbADKIN (original value) (T. brucei ADKIN; value before revision): 6.93 ± 0.29 U (µmol . min-1)
fold reduced susceptibility in ADKIN knockdown cell lines [2]: ~ 20 fold
Inhibition (%) ([2]; ADKIN A +, 0.000976563 µM): 2.55%
Inhibition (%) ([2]; ADKIN A +, 0.00390625 µM): 2.6%
Inhibition (%) ([2]; ADKIN A +, 0.0625 µM): 42% and 36% and 30%
Inhibition (%) ([2]; ADKIN A +, 0.25 µM): 91% and 95%
Inhibition (%) ([2]; ADKIN B +, 0.25 µM): 93% and 91% and 98%
inhibition at 0.0625 µM ([2]; Trypanosoma brucei, ADKIN A +, 0.0625 µM): 33%
inhibition at 0.25 µM ([2]; Trypanosoma brucei, ADKIN A +, 0.25 µM): 94%
inhibition at 1 µM ([2]; Trypanosoma brucei, ADKIN A +): 99%
inhibition at 4 µM ([2]; Trypanosoma brucei, ADKIN A +): 99%
inhibition at 16 µM ([2]; Trypanosoma brucei, ADKIN A +): 100%
inhibition at 64 µM ([2]; Trypanosoma brucei, ADKIN A +): 99%
inhibition at 0.000244141 µM ([2]; Trypanosoma brucei, ADKIN B +, 0.000244141 µM): 0%
inhibition at 0.000976563 µM ([2]; Trypanosoma brucei, ADKIN B +, 0.000976563 µM): 0%
inhibition at 0.00390625 µM ([2]; Trypanosoma brucei, ADKIN B +, 0.00390625 µM): 0%
inhibition at 0.015625 µM ([2]; Trypanosoma brucei, ADKIN B +, 0.015625 µM): 0%
inhibition at 0.25 µM ([2]; Trypanosoma brucei, ADKIN B +, 0.25 µM): 96%
inhibition at 1 µM ([2]; Trypanosoma brucei, ADKIN B +): 99%
inhibition at 4 µM ([2]; Trypanosoma brucei, ADKIN B +): 99%
inhibition at 16 µM ([2]; Trypanosoma brucei, ADKIN B +): 100%
inhibition at 64 µM ([2]; Trypanosoma brucei, ADKIN B +): 100%
EC50 ([2]; Trypanosoma brucei, read-out: EC50, ADKIN RNAi clones before knockdown): 7.7 ± 0.17 nM
EC50 ([2]; Trypanosoma brucei, read-out: EC50 upon ADKIN knockdown): 100 ± 5 nM
IC50 ([2]; Trypanosoma brucei, read-out: IC50, ADKIN A +, clone A, tetracycline-induced): 101 nM
IC50 ([2]; Trypanosoma brucei, read-out: IC50, ADKIN A -, clone A, non-induced): 6.9 nM
IC50 ([2]; Trypanosoma brucei, read-out: IC50, ADKIN B +, clone B, tetracycline-induced): 98.5 nM
IC50 ([2]; read-out: IC50, ADKIN A +, clone A, tetracycline-induced): 117 nM and 123 nM and 92 nM and 78.4 nM and 88.9 nM and 95.7 nM and 111 nM
IC50 ([2]; read-out: IC50, ADKIN A -, clone A, non-induced): 7.7 nM and 7.2 nM and 8.1 nM and 7.9 nM and 8.3 nM and 7.8 nM and 7.4 nM
IC50 ([2]; read-out: IC50, ADKIN B +, clone B, tetracycline-induced): 110 nM and 121 nM and 120 nM (2×) and 109 nM and 132 nM and 127 nM
